The target in the first assay is T1, Recombinant human cathepsin S (CatS) (Homo sapiens, UniProt P25774).
T1 construct: made in house
T1 sequence (P25774 115-331): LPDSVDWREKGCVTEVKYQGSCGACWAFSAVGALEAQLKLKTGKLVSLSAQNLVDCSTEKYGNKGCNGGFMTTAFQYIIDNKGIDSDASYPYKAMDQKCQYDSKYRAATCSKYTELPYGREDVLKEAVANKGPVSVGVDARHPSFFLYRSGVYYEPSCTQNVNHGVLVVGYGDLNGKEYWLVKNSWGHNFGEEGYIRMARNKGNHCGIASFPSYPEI
Kind of assay: Recombinant human cathepsin S (CatS) fluorogenic substrate inhibition assay. The assay is classed as biochemical.
Conditions: not given
The procedure:
Recombinant human cathepsin S (CatS) was expressed in the baculovirus system and purified in one step with a thiopropyl-sepharose column. […] The assay is run in 150 mM sodium acetate pH 5.0 containing 1.5 mM DTT and 150 mM NaCl. […] Measurements are taken every min for 20 min. The rate is calculated from the slope of the increase in fluorescence and the percent inhibition is calculated from this.
Broadly, the IC50 is the concentration that gives 50% inhibition. For `CS(=O)(=O)N1CCc2c(c(-c3ccc(C(F)(F)F)c(CNC(=O)Oc4ccccc4)c3)nn2CC(O)CN2CCCC2)C1` (centres unmarked) [Example 116, {5-[1-(2-Hydroxy-3-pyrrolidin-1-yl-propyl)-5-methanesulfonyl-4,5,6,7-tetrahydro-1H-pyrazolo[4,3-c]pyridin-3-yl]-2-trifluoromethyl-benzyl}-carbamic acid phenyl ester], the IC50 turned out to be 0.52 µM.

The assay is the same for the next values; noted with them: average of results obtained; substrate Z-Valine-Valine-Arginine-AMC 10 μM, pH 5.0; read-out: CatS IC50.
With `CS(=O)(=O)N1CCc2c(c(-c3ccc(C(F)(F)F)c(CNC(=O)c4ccc(O)cc4)c3)nn2CCCN2CCC3(CCNC3=O)CC2)C1` [Example 142, 4-Hydroxy-N-(5-{5-methanesulfonyl-1-[3-(1-oxo-2,8-diaza-spiro[4.5]dec-8-yl)-propyl]-4,5,6,7-tetrahydro-1H-pyrazolo[4,3-c]pyridin-3-yl}-2-trifluoromethyl-benzyl)-benzamide], the IC50 is 0.09 µM.

As to `CS(=O)(=O)N1CCc2c(c(-c3ccc(C(F)(F)F)c(CNC(=O)c4ccc(F)cc4)c3)nn2CC(O)CN2CCN(CCO)CC2)C1` (centres unmarked) [Example 98, 4-Fluoro-N-[5-(1-{2-hydroxy-3-[4-(2-hydroxy-ethyl)-piperazin-1-yl]-propyl}-5-methanesulfonyl-4,5,6,7-tetrahydro-1H-pyrazolo[4,3-c]pyridin-3-yl)-2-trifluoromethyl-benzyl]-benzamide], the IC50 was determined as 0.28 µM. Still for that read-out and setting: next, `CS(=O)(=O)N1CCc2c(c(-c3ccc(C(F)(F)F)c(CNC(=O)c4ccc(F)cc4)c3)nn2CC(O)CN2CCS(=O)(=O)CC2)C1` (centres unmarked) [Example 169, N-(5-{1-[3-(1,1-Dioxo-1λ^6-thiomorpholin-4-yl)-2-hydroxy-propyl]-5-methanesulfonyl-4,5,6,7-tetrahydro-1H-pyrazolo[4,3-c]pyridin-3-yl}-2-trifluoromethyl-benzyl)-4-fluoro-benzamide]: 0.55 µM; `CC(C)CC(=O)NCc1cc(-c2nn(CC(O)CN3CCC(O)C3)c3c2CN(S(C)(=O)=O)CC3)ccc1C(F)(F)F` (centres unmarked) [Example 246, N-(5-{1-[2-Hydroxy-3-(3-hydroxy-pyrrolidin-1-yl)-propyl]-5-methanesulfonyl-4,5,6,7-tetrahydro-1H-pyrazolo[4,3-c]pyridin-3-yl}-2-trifluoromethyl-benzyl)-3-methyl-butyramide]: 0.43 µM.

On to `CS(=O)(=O)N1CCc2c(c(-c3ccc(C(F)(F)F)c(CNC(=O)c4ccc(F)cc4)c3)nn2CC(O)CN2CCOCC2)C1` (centres unmarked) [Example 23, 4-Fluoro-N-{5-[1-(2-hydroxy-3-morpholin-4-yl-propyl)-5-methanesulfonyl-4,5,6,7-tetrahydro-1H-pyrazolo[4,3-c]pyridin-3-yl]-2-trifluoromethyl-benzyl}-benzamide], for which the IC50 is 0.15 µM. On to `CS(=O)(=O)N1CCc2c(c(-c3ccc(C(F)(F)F)c(CNC(=O)c4ccc(F)cc4)c3)nn2CC(O)CN2CC[C@H](CO)C2)C1` (stereo partly drawn) [Example 94, (S)-4-Fluoro-N-(5-{1-[2-hydroxy-3-(3-hydroxymethyl-pyrrolidin-1-yl)-propyl]-5-methanesulfonyl-4,5,6,7-tetrahydro-1H-pyrazolo[4,3-c]pyridin-3-yl}-2-trifluoromethyl-benzyl)-benzamide], for which the IC50 amounted to 0.18 µM. Still for that read-out and setting: under `CCOC(=O)NC1CCN(CC(O)Cn2nc(-c3ccc(C(F)(F)F)c(CNC(=O)CC(C)C)c3)c3c2CCN(S(C)(=O)=O)C3)CC1` (centres unmarked) [Example 155, {1-[2-Hydroxy-3-(5-methanesulfonyl-3-{3-[(3-methyl-butyrylamino)-methyl]-4-trifluoromethyl-phenyl}-4,5,6,7-tetrahydro-pyrazolo[4,3-c]pyridin-1-yl)-propyl]-piperidin-4-yl}-carbamic acid ethyl ester] stands 0.05 µM; under `CC(=O)N1CCC(C(=O)NCc2cc(-c3nn(CC(O)CN4CCCC4)c4c3CN(S(C)(=O)=O)CC4)ccc2C(F)(F)F)CC1` (centres unmarked) [Example 242, 1-Acetyl-piperidine-4-carboxylic acid 5-[1-(2-hydroxy-3-pyrrolidin-1-yl-propyl)-5-methanesulfonyl-4,5,6,7-tetrahydro-1H-pyrazolo[4,3-c]pyridin-3-yl]-2-trifluoromethyl-benzylamide], 1.03 µM. For the compound `CC(=O)N1CCc2c(c(-c3ccc(C(F)(F)F)c(CNC(=O)c4ccc(F)cc4)c3)nn2CC(O)CN2CCC3(CCNC3=O)CC2)C1` (centres unmarked) [Example 7, N-(5-{5-Acetyl-1-[2-hydroxy-3-(1-oxo-2,8-diaza-spiro[4.5]dec-8-yl)-propyl]-4,5,6,7-tetrahydro-1H-pyrazolo[4,3-c]pyridin-3-yl}-2-trifluoromethylbenzyl)-4-fluoro-benzamide], the IC50 worked out at 0.07 µM. The same measure, in the same setting: under `CS(=O)(=O)N1CCc2c(c(-c3ccc(C(F)(F)F)c(CNC(=O)c4ccccc4)c3)nn2CC(O)CN2CCC3(CCNC3=O)CC2)C1` (centres unmarked) [Example 145, N-(5-{1-[2-Hydroxy-3-(1-oxo-2,8-diaza-spiro[4.5]dec-8-yl)-propyl]-5-methanesulfonyl-4,5,6,7-tetrahydro-1H-pyrazolo[4,3-c]pyridin-3-yl}-2-trifluoromethyl-benzyl)-benzamide] stands 0.13 µM; under `CS(=O)(=O)N1CCc2c(c(-c3ccc(Cl)c(CC(=O)Nc4ccc(F)cc4)c3)nn2CCCN2CCOCC2)C1` [Example 290, 2-{2-Chloro-5-[5-methanesulfonyl-1-(3-morpholin-4-yl-propyl)-4,5,6,7-tetrahydro-1H-pyrazolo[4,3-c]pyridin-3-yl]-phenyl}-N-(4-fluoro-phenyl)-acetamide], 1.85 µM; under `CS(=O)(=O)N1CCc2c(c(-c3ccc(C(F)(F)F)c(CNC(=O)c4cccc(C#N)c4)c3)nn2CC(O)CN2CCCC2)C1` (centres unmarked) [Example 159, 3-Cyano-N-{5-[1-(2-hydroxy-3-pyrrolidin-1-yl-propyl)-5-methanesulfonyl-4,5,6,7-tetrahydro-1H-pyrazolo[4,3-c]pyridin-3-yl]-2-trifluoromethyl-benzyl}-benzamide], 0.29 µM. The same measure, in the same setting: under `CS(=O)(=O)N1CCc2c(c(-c3ccc(C(F)(F)F)c(CNC(=O)c4ccc(N)cc4)c3)nn2CC(O)CN2CCCC2)C1` (centres unmarked) [Example 165, 4-Amino-N-{5-[1-(2-hydroxy-3-pyrrolidin-1-yl-propyl)-5-methanesulfonyl-4,5,6,7-tetrahydro-1H-pyrazolo[4,3-c]pyridin-3-yl]-2-trifluoromethyl-benzyl}-benzamide] stands 0.44 µM; under `CS(=O)(=O)N1CCc2c(c(-c3ccc(Cl)c(CNC(=O)c4ccc(Cl)cc4)c3)nn2CCCN2CCCC2)C1` [Example 86, 4-Chloro-N-{2-chloro-5-[5-methanesulfonyl-1-(3-pyrrolidin-1-yl-propyl)-4,5,6,7-tetrahydro-1H-pyrazolo[4,3-c]pyridin-3-yl]-benzyl}-benzamide], 0.96 µM. As to `CS(=O)(=O)N1CCc2c(c(-c3ccc(C(F)(F)F)c(CNC(=O)c4ccccc4)c3)nn2CCCN2CCC3(CCNC3=O)CC2)C1` [Example 144, N-(5-{5-Methanesulfonyl-1-[3-(1-oxo-2,8-diaza-spiro[4.5]dec-8-yl)-propyl]-4,5,6,7-tetrahydro-1H-pyrazolo[4,3-c]pyridin-3-yl}-2-trifluoromethyl-benzyl)-benzamide], the 50% inhibitory concentration (IC50) was 0.11 µM. Still for that read-out and setting: under `Cc1ccc(C(=O)NCc2cc(-c3nn(CC(O)CN4CCCC4)c4c3CN(S(C)(=O)=O)CC4)ccc2C(F)(F)F)cc1` (centres unmarked) [Example 214] stands 0.58 µM; under `CN(C)c1ccccc1C(=O)NCc1cc(-c2nn(CC(O)CN3CCCC3)c3c2CN(S(C)(=O)=O)CC3)ccc1C(F)(F)F` (centres unmarked) [Example 239, 2-Dimethylamino-N-{5-[1-(2-hydroxy-3-pyrrolidin-1-yl-propyl)-5-methanesulfonyl-4,5,6,7-tetrahydro-1H-pyrazolo[4,3-c]pyridin-3-yl]-2-trifluoromethyl-benzyl}-benzamide], 0.95 µM.

For `CC1CCCN1CC(O)Cn1nc(-c2ccc(C(F)(F)F)c(CNC(=O)c3ccc(F)cc3)c2)c2c1CCN(S(C)(=O)=O)C2` (centres unmarked) [Example 100, 4-Fluoro-N-(5-{1-[2-hydroxy-3-(2-methyl-pyrrolidin-1-yl)-propyl]-5-methanesulfonyl-4,5,6,7-tetrahydro-1H-pyrazolo[4,3-c]pyridin-3-yl}-2-trifluoromethyl-benzyl)-benzamide], the IC50 is 0.33 µM.

Turning to `CS(=O)(=O)N1CCc2c(c(-c3ccc(C(F)(F)F)c(CNC(=O)c4ccc(F)cc4)c3)nn2CC(O)CN2CCC[C@H]2C(N)=O)C1` (stereo partly drawn) [Example 97, (S)-1-[3-(3-{3-[(4-Fluoro-benzoylamino)-methyl]-4-trifluoromethyl-phenyl}-5-methanesulfonyl-4,5,6,7-tetrahydro-pyrazolo[4,3-c]pyridin-1-yl)-2-hydroxy-propyl]-pyrrolidine-2-carboxylic acid amide], the IC50 worked out at 0.24 µM.

Regarding `CS(=O)(=O)N1CCc2c(c(-c3ccc(C(F)(F)F)c(CNC(=O)c4ccc(F)cc4)c3)nn2CC(O)CN2CCC3(CCNC3=O)CC2)C1` (centres unmarked) [Example 16, 4-Fluoro-N-(5-{1-[2-hydroxy-3-(1-oxo-2,8-diaza-spiro[4.5]dec-8-yl)-propyl]-5-methanesulfonyl-4,5,6,7-tetrahydro-1H-pyrazolo[4,3-c]pyridin-3-yl}-2-trifluoromethyl-benzyl)-benzamide], the IC50 was 0.06 µM.

As for `CS(=O)(=O)N1CCc2c(c(-c3ccc(C(F)(F)F)c(CNC(=O)c4ccc(F)cc4)c3)nn2CC(O)CN2CCNC(=O)C2)C1` (centres unmarked) [Example 19, 4-Fluoro-N-(5-{1-[2-hydroxy-3-(3-oxo-piperazin-1-yl)-propyl]-5-methanesulfonyl-4,5,6,7-tetrahydro-1H-pyrazolo[4,3-c]pyridin-3-yl}-2-trifluoromethyl-benzyl)-benzamide], the IC50 came to 0.33 µM. Consider `CS(=O)(=O)N1CCc2c(c(-c3ccc(C(F)(F)F)c(CNC(=O)c4ccc(F)cc4F)c3)nn2CC(O)CN2CCCC2)C1` (centres unmarked) [Example 101, 2,4-Difluoro-N-{5-[1-(2-hydroxy-3-pyrrolidin-1-yl-propyl)-5-methanesulfonyl-4,5,6,7-tetrahydro-1H-pyrazolo[4,3-c]pyridin-3-yl]-2-trifluoromethyl-benzyl}-benzamide], for which the IC50 was determined as 0.44 µM.

The record behind these values is patent US20090118274A1, “MONOCYCLIC AMINOPROPYL TETRAHYDRO-PYRAZOLO-PYRIDINE MODULATORS OF CATHEPSIN S” (priority 2007, published 2009).
